IC50 data for twelve compounds are collected here from patent US20260022142A1, “MACROCYCLIC IMMUNOMODULATORS” (Bristol-Myers Squibb Company, priority 2022, published 2026).

The structures appear in SMILES notation. Bridge positions count the residues as written; N and C are the ends. Square brackets hold non-standard residues; d marks the D form. Peptide text beside a SMILES is read from it. * marks the point of attachment. ξ: configuration not given here. Phe(3-CF3) = N[C@@H](Cc1cccc(C(F)(F)F)c1)C(=O)O; Phe(4-COOH) = N[C@@H](Cc1ccc(C(=O)O)cc1)C(=O)O; Bip = N[C@@H](Cc1ccc(-c2ccccc2)cc1)C(=O)O; NH(CH2)14COOH = O=C(O)CCCCCCCCCCCCCCN*; Phe(3-Me) = Cc1cccc(C[C@H](N)C(=O)O)c1; His(τ-Me) = Cn1cnc(C[C@H](N)C(=O)O)c1; Val(3-OH) = CC(C)(O)[C@H](N)C(=O)O; hArg = N=C(N)NCCCC[C@H](N)C(=O)O; 4Pal = N[C@@H](Cc1ccncc1)C(=O)O; 3Thi = N[C@@H](Cc1ccsc1)C(=O)O; Cha = N[C@@H](CC1CCCCC1)C(=O)O; Cit = NC(=O)NCCC[C@H](N)C(=O)O; Thr(3ξ) = CC(O)[C@H](N)C(=O)O; 12Ado = NCCCCCCCCCCCC(=O)O; Carboxymethyl = O=C(O)C*; Nle = CCCC[C@H](N)C(=O)O; Orn = NCCC[C@H](N)C(=O)O; Aun = NCCCCCCCCCCC(=O)O; Dab = NCC[C@H](N)C(=O)O; Dap = NC[C@H](N)C(=O)O; AEEA = NCCOCCOCC(=O)O

The target of the test is T1, PD-1/PD-L1 interaction (PE-labeled human PD-L1-Ig binding to Jurkat cell line over-expressing human PD-1) (Homo sapiens, UniProt Q15116).
T1 construct: expressed in transfected cells; host or cells: Jurkat
T1 sequence (Q15116 25-288): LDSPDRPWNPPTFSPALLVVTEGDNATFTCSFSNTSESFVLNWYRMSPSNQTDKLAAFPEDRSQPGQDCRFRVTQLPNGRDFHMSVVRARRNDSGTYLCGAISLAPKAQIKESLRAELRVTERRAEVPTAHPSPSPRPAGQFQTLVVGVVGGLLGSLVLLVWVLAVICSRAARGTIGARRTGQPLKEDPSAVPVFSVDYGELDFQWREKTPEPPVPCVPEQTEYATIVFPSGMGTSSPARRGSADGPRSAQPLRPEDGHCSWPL
Briefly: Jurkat-PD-1 Cell Binding High-Content Screening Assay (CBA). It is filed as cell-based. The following applies: Jurkat cell line over-expressing human PD-1; PE-labeled PD-L1-Ig 20 nM final; read-out: Jurkat hPD1-PDL1 IC50. Put shortly:
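Jurkat cells stably over-expressing human PD-1 were seeded in DMEM with 10% fetal calf serum and pre-incubated with compound for 2 h at 37° C. PE-labeled human PD-L1-Ig was then added at 20 nM final for 1 hour, after which cells were fixed with paraformaldehyde, Hoechst-stained and imaged by high-content microscopy.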
For orientation: IC50 means the concentration needed to halve the response being measured. With `Cc1cccc(C[C@@H]2NC(=O)[C@H](CC(=O)O)NC(=O)[C@H](Cc3ccc(OCC(=O)O)cc3)NC(=O)[C@H](Cc3ccc(OCC(=O)O)cc3)NC(=O)CSC[C@@H](C(=O)N[C@@H](CN)C(=O)NCCCCCCCCCCC(=O)O)NC(=O)[C@H](CO)NC(=O)[C@H](C(C)C)NC(=O)[C@H](CC3CCCCC3)NC(=O)[C@H](CCN)NC(=O)[C@@H](CC(C)C)NC(=O)[C@H](CCCN)NC(=O)[C@H](C(C)C)NC(=O)[C@H](Cc3ccc(-c4ccccc4)cc3)NC(=O)[C@H](CC(C)C)NC2=O)c1` [Compound 1061] ({CH2CO}-Y(Carboxymethyl)Y(Carboxymethyl)D[Phe(3-Me)]L[Bip]V[Orn][dL][Dab][Cha]VSC[Dap][Aun]-OH; thioether N-14), the IC50 was found to be 56.2 nM.
With `Cc1cccc(C[C@@H]2NC(=O)[C@H](CC(=O)O)NC(=O)[C@H](Cc3ccc(OCC(=O)O)cc3)NC(=O)[C@H](CN)NC(=O)CSC[C@@H](C(=O)N[C@@H](C)C(=O)N[C@@H](CCCCN)C(=O)NCC(=O)NCCCCCCCCCCCCCCC(=O)O)NC(=O)[C@H](C(C)O)NC(=O)[C@H](C(C)C)NC(=O)[C@H](CC3CCCCC3)NC(=O)[C@H](CCN)NC(=O)[C@@H](CC(C)C)NC(=O)[C@H](CCCN)NC(=O)[C@H](CCCNC(N)=O)NC(=O)[C@H](Cc3ccc(-c4ccccc4)cc3)NC(=O)[C@H](C(C)C)NC2=O)c1` (stereo partly drawn) [Compound 3007] ({CH2CO}-[Dap]Y(Carboxymethyl)D[Phe(3-Me)]V[Bip][Cit][Orn][dL][Dab][Cha]V[Thr(3ξ)]CAKG-{NH(CH2)14COOH}; thioether N-14), the IC50 is 180 nM.
Under `Cc1cccc(C[C@@H]2NC(=O)[C@H](CC(=O)O)NC(=O)[C@H](Cc3ccc(OCC(=O)O)cc3)NC(=O)[C@H](C)NC(=O)CSC[C@@H](C(=O)N[C@@H](CCN)C(=O)NCCOCCOCC(=O)NCCOCCOCC(=O)NCCOCCOCC(=O)NCCCCCCCCCCCCCCC(=O)O)NC(=O)[C@H](Cc3cnc[nH]3)NC(=O)[C@H](C(C)(C)O)NC(=O)[C@H](CC3CCCCC3)NC(=O)[C@H](CCN)NC(=O)[C@@H](CC(C)C)NC(=O)[C@H](CCCN)NC(=O)[C@H](Cc3ccc(C(=O)O)cc3)NC(=O)[C@H](Cc3ccc(-c4ccccc4)cc3)NC(=O)[C@H](Cc3ccc(C(=O)O)cc3)NC2=O)c1` [Compound 3856] ({CH2CO}-AY(Carboxymethyl)D[Phe(3-Me)][Phe(4-COOH)][Bip][Phe(4-COOH)][Orn][dL][Dab][Cha][Val(3-OH)]HC[Dab][AEEA][AEEA][AEEA]-{NH(CH2)14COOH}; thioether N-14) stands 94.2 nM.
As for `CC(C)C[C@H]1NC(=O)[C@H](CCN)NC(=O)[C@H](C(C)C)NC(=O)[C@H](Cc2ccc(-c3ccccc3)cc2)NC(=O)[C@H](C(C)C)NC(=O)[C@H](Cc2c[nH]c3ccccc23)NC(=O)[C@H](CC(=O)O)NC(=O)[C@H](Cc2ccc(OCC(=O)O)cc2)NC(=O)[C@H](Cc2ccsc2)NC(=O)CSC[C@@H](C(=O)NCCOCCOCC(=O)N[C@@H](CCN)C(=O)NCCCCCCCCCCC(=O)O)NC(=O)[C@H](CCCN)NC(=O)[C@H](C(C)C)NC(=O)[C@H](CC2CCCCC2)NC(=O)[C@H](CCN)NC1=O` [Compound 3284] ({CH2CO}-[3Thi]Y(Carboxymethyl)DWV[Bip]V[Dab][dL][Dab][Cha]V[Orn]C[AEEA][Dab][Aun]-OH; thioether N-14), the figure is 10.2 nM.
As for `Cc1cccc(C[C@@H]2NC(=O)[C@H](CC(=O)O)NC(=O)[C@H](Cc3ccc(OCC(=O)O)cc3)NC(=O)[C@H](CN)NC(=O)CSC[C@@H](C(=O)N[C@@H](C)C(=O)NCCOCCOCC(=O)N[C@@H](CCC(=O)O)C(=O)NCCCCCCCCCCC(=O)O)NC(=O)[C@H]([C@@H](C)O)NC(=O)[C@H](C(C)C)NC(=O)[C@H](CC3CCCCC3)NC(=O)[C@H](CCN)NC(=O)[C@@H](CC(C)C)NC(=O)[C@H](CCCN)NC(=O)[C@H](CCCNC(N)=O)NC(=O)[C@H](Cc3ccc(-c4ccccc4)cc3)NC(=O)[C@H](C(C)C)NC2=O)c1` [Compound 1007] ({CH2CO}-[Dap]Y(Carboxymethyl)D[Phe(3-Me)]V[Bip][Cit][Orn][dL][Dab][Cha]VTCA[AEEA]E[Aun]-OH; thioether N-14), the figure is 7.9 nM.
In the case of `Cc1cccc(C[C@@H]2NC(=O)[C@H](CC(=O)O)NC(=O)[C@H](Cc3ccc(OCC(=O)O)cc3)NC(=O)[C@H](Cc3cn(C)cn3)NC(=O)CSC[C@@H](C(=O)N[C@@H](CCN)C(=O)NCCCCCCCCCCC(=O)O)NC(=O)[C@H](CCC(N)=O)NC(=O)[C@H](C(C)(C)O)NC(=O)[C@H](CC3CCCCC3)NC(=O)[C@H](CCN)NC(=O)[C@@H](CC(C)C)NC(=O)[C@H](CCCN)NC(=O)[C@H](Cc3ccc(OCC(=O)O)cc3)NC(=O)[C@H](Cc3ccc(-c4ccccc4)cc3)NC(=O)[C@H](Cc3ccc(OCC(=O)O)cc3)NC2=O)c1` [Compound 2155] ({CH2CO}-[His(τ-Me)]Y(Carboxymethyl)D[Phe(3-Me)]Y(Carboxymethyl)[Bip]Y(Carboxymethyl)[Orn][dL][Dab][Cha][Val(3-OH)]QC[Dab][Aun]-OH; thioether N-14), the IC50 came to 19.4 nM.
Under `CC(C)C[C@H]1NC(=O)[C@H](CCN)NC(=O)[C@H](C(C)C)NC(=O)[C@H](Cc2ccc(-c3ccccc3)cc2)NC(=O)[C@H](C(C)C)NC(=O)[C@H](Cc2c[nH]c3ccccc23)NC(=O)[C@H](CC(=O)O)NC(=O)[C@H](Cc2ccc(OCC(=O)O)cc2)NC(=O)[C@H](Cc2ccsc2)NC(=O)CSC[C@@H](C(=O)NCCOCCOCC(=O)N[C@@H](CCCN)C(=O)NCCCCCCCCCCC(=O)O)NC(=O)[C@H](C(C)O)NC(=O)[C@H](C(C)C)NC(=O)[C@H](CC2CCCCC2)NC(=O)[C@H](CCN)NC1=O` (stereo partly drawn) [Compound 3210] ({CH2CO}-[3Thi]Y(Carboxymethyl)DWV[Bip]V[Dab][dL][Dab][Cha]V[Thr(3ξ)]C[AEEA][Orn][Aun]-OH; thioether N-14) stands 8 nM; under `CC(C)C[C@H]1NC(=O)[C@H](CCN)NC(=O)[C@H](C(C)C)NC(=O)[C@H](Cc2ccc(-c3ccccc3)cc2)NC(=O)[C@H](C(C)C)NC(=O)[C@H](Cc2c[nH]c3ccccc23)NC(=O)[C@H](CC(=O)O)NC(=O)[C@H](Cc2ccc(OCC(=O)O)cc2)NC(=O)[C@H](Cc2ccsc2)NC(=O)CSC[C@@H](C(=O)NCCOCCOCC(=O)NCCCCCCCCCCC(=O)O)NC(=O)[C@H](C(C)O)NC(=O)[C@H](C(C)C)NC(=O)[C@H](CC2CCCCC2)NC(=O)[C@H](CCN)NC1=O` (stereo partly drawn) [Compound 3280] ({CH2CO}-[3Thi]Y(Carboxymethyl)DWV[Bip]V[Dab][dL][Dab][Cha]V[Thr(3ξ)]C[AEEA][Aun]-OH; thioether N-14), 42.2 nM.
Under `CC(=O)NCCCC[C@@H]1NC(=O)[C@H](Cc2ccc(-c3ccccc3)cc2)NC(=O)[C@H](Cc2ccc(O)cc2)NC(=O)[C@H](Cc2cccc(C)c2)NC(=O)[C@H](CC(=O)O)NC(=O)[C@H](Cc2ccc(OCC(=O)O)cc2)NC(=O)[C@H](C(C)O)NC(=O)CSC[C@@H](C(=O)N[C@@H](CCN)C(=O)N[C@@H](CO)C(=O)NCCCCCCCCCCCC(=O)O)NC(=O)[C@H](CCCN)NC(=O)[C@H](C(C)(C)O)NC(=O)[C@H](CC2CCCCC2)NC(=O)[C@H](CCN)NC(=O)[C@@H](CC(C)C)NC(=O)[C@H](CCCN)NC1=O` (stereo partly drawn) [Compound 3622] ({CH2CO}-[Thr(3ξ)]Y(Carboxymethyl)D[Phe(3-Me)]Y[Bip]K(Ac)[Orn][dL][Dab][Cha][Val(3-OH)][Orn]C[Dab]S[12Ado]-OH; thioether N-14) stands 18.3 nM; under `Cc1cccc(C[C@@H]2NC(=O)[C@H](CC(=O)O)NC(=O)[C@H](Cc3ccncc3)NC(=O)[C@H](Cc3ccc(OCC(=O)O)cc3)NC(=O)CSC[C@@H](C(=O)N[C@@H](CCN)C(=O)NCCCCCCCCCCC(=O)O)NC(=O)[C@H]([C@@H](C)O)NC(=O)[C@H](C(C)C)NC(=O)[C@H](CC3CCCCC3)NC(=O)[C@H](CCN)NC(=O)[C@@H](CC(C)C)NC(=O)[C@H](CCCN)NC(=O)[C@H](Cc3ccc(O)cc3)NC(=O)[C@H](Cc3ccc(-c4ccccc4)cc3)NC(=O)[C@H](Cc3ccc(O)cc3)NC2=O)c1` [Compound 2734] ({CH2CO}-Y(Carboxymethyl)[4Pal]D[Phe(3-Me)]Y[Bip]Y[Orn][dL][Dab][Cha]VTC[Dab][Aun]-OH; thioether N-14), 27.2 nM; under `CC(C)C[C@H]1NC(=O)[C@H](CCN)NC(=O)[C@H](C(C)C)NC(=O)[C@H](Cc2ccc(-c3ccccc3)cc2)NC(=O)[C@H](C(C)C)NC(=O)[C@H](Cc2c[nH]c3ccccc23)NC(=O)[C@H](CC(=O)O)NC(=O)[C@H](Cc2ccc(OCC(=O)O)cc2)NC(=O)[C@H](CCCCNC(=N)N)NC(=O)CSC[C@@H](C(=O)N[C@H](CC(N)=O)C(=O)NCCCCCCCCCCC(=O)O)NC(=O)[C@H](CCCN)NC(=O)[C@H](C(C)C)NC(=O)[C@H](CC2CCCCC2)NC(=O)[C@H](CCN)NC1=O` [Compound 3277] ({CH2CO}-[hArg]Y(Carboxymethyl)DWV[Bip]V[Dab][dL][Dab][Cha]V[Orn]C[dN][Aun]-OH; thioether N-14), 10.5 nM.
Under `CCCC[C@@H]1NC(=O)CSC[C@@H](C(=O)N[C@@H](CCN)C(=O)NCCCCCCCCCCCCCCC(=O)O)NC(=O)[C@H](C(C)O)NC(=O)[C@H](C(C)(C)O)NC(=O)[C@H](CC2CCCCC2)NC(=O)[C@H](CCN)NC(=O)[C@@H](CC(C)C)NC(=O)[C@H](Cc2cnc[nH]2)NC(=O)[C@H](Cc2ccc(OCC(=O)O)cc2)NC(=O)[C@H](Cc2ccc(-c3ccccc3)cc2)NC(=O)[C@H](Cc2ccc(C(=O)O)cc2)NC(=O)[C@H](Cc2cccc(C(F)(F)F)c2)NC(=O)[C@H](CC(=O)O)NC(=O)[C@H](Cc2ccc(OCC(=O)O)cc2)NC1=O` (stereo partly drawn) [Compound 3863] ({CH2CO}-[Nle]Y(Carboxymethyl)D[Phe(3-CF3)][Phe(4-COOH)][Bip]Y(Carboxymethyl)H[dL][Dab][Cha][Val(3-OH)][Thr(3ξ)]C[Dab]-{NH(CH2)14COOH}; thioether N-14) stands 430 nM.
